Structures are written as SMILES. ≈ marks a conversion by molar mass, not a printed value. Calls of active or inactive are those of the source. The rule behind the calls is not given here. Where only a bound is given, the exact number is not on record here.

In one test the test system is Pseudomonas aeruginosa. The experiment in a line: Antimicrobial activity against Pseudomonas aeruginosa CIP 82.118 after 18 to 24 hrs by broth microdilution method. It is filed as functional.
The next test relates to Enterococcus hirae. As to the kind of experiment: Antimicrobial activity against Enterococcus hirae CIP 5855 after 18 to 24 hrs by broth microdilution method. It is filed as functional.
Test [1] relates to Staphylococcus aureus. As to the kind of experiment: Antimicrobial activity against Staphylococcus aureus CIP 4.83 after 18 to 24 hrs by broth microdilution method. It is filed as functional.
A further test relates to Escherichia coli. As to the kind of experiment: Antimicrobial activity against Escherichia coli CIP 53126 after 18 to 24 hrs by broth microdilution method. It is filed as functional.
Test [2] deals with Mycobacterium tuberculosis. The experiment in a line: Antimycobacterial activity against Mycobacterium tuberculosis H37Rv assessed as growth inhibition at 0.1 uM after 6 days by MTT colorimetric microassay. It is filed as functional, organism-based.
Test [3] deals with Staphylococcus aureus. As to the kind of experiment: Antimicrobial activity against multidrug-resistant Staphylococcus aureus isolate 1 after 18 to 24 hrs by broth microdilution method. It is filed as functional.
In test [4] the test system is Staphylococcus aureus. The experiment in a line: Antimicrobial activity against methicillin-resistant Staphylococcus aureus ATCC 33591 after 18 to 24 hrs by broth microdilution method. It is filed as functional.
Test [5] deals with Staphylococcus aureus. As to the kind of experiment: Antimicrobial activity against multidrug-resistant Staphylococcus aureus isolate 2 after 18 to 24 hrs by broth microdilution method. It is filed as functional.
The test system of test [6] is Staphylococcus aureus. The experiment in a line: Antimicrobial activity against methicillin-resistant Staphylococcus aureus ATCC 33592 after 18 to 24 hrs by broth microdilution method. It is filed as functional.

Turning to `CCCCNC(=O)c1cn2c3c(c(N4CCN(C)CC4)c(F)cc3c1=O)OC[C@@H]2C`, the MBC against Pseudomonas aeruginosa turned out to be 250 µM (≈ 104 µg/mL); against Enterococcus hirae, 250 µM (≈ 104 µg/mL); with Staphylococcus aureus [1], 125 µM (≈ 52.1 µg/mL); in the test on Escherichia coli it was 62.5 µM (≈ 26 µg/mL). Besides, the MIC was determined as 62.5 µM (≈ 26 µg/mL) in the test on Pseudomonas aeruginosa, 125 µM (≈ 52.1 µg/mL) in the test with Enterococcus hirae, 125 µM (≈ 52.1 µg/mL) in the test with Staphylococcus aureus [1] and 62.5 µM (≈ 26 µg/mL) with Escherichia coli. Besides, the “growth inhibition (GI)” value in test [2] is “inactive”.
`CCCCCCNC(=O)c1cn2c3c(c(N4CCN(C)CC4)c(F)cc3c1=O)OC[C@@H]2C`: the MBC in the test on Pseudomonas aeruginosa was found to be 250 µM (≈ 111 µg/mL); against Enterococcus hirae, 250 µM (≈ 111 µg/mL); in the test with Staphylococcus aureus [1], 250 µM (≈ 111 µg/mL); against Escherichia coli, 500 µM (≈ 222 µg/mL). Further, the MIC against Pseudomonas aeruginosa was determined as 62.5 µM (≈ 27.8 µg/mL); against Enterococcus hirae, 125 µM (≈ 55.6 µg/mL); in the test with Staphylococcus aureus [1], 250 µM (≈ 111 µg/mL); with Escherichia coli, 125 µM (≈ 55.6 µg/mL). In test [2], the “growth inhibition (GI)” value was “inactive”.
Consider `O=C(O)c1cn(C2CC2)c2cc(N3CCN(C(=O)CCCCCCCCCCC(=O)N4CCN(c5cc6c(cc5F)c(=O)c(C(=O)O)cn6C5CC5)CC4)CC3)c(F)cc2c1=O`, for which the MBC against Pseudomonas aeruginosa was 250 µM (≈ 214 µg/mL); in the test on Enterococcus hirae, 500 µM (≈ 428 µg/mL); in the test with Staphylococcus aureus [1], at most 0.97 µM; with Staphylococcus aureus [3] it was 500 µM (≈ 428 µg/mL); in the test with Staphylococcus aureus [4] it was 3.9 µM (≈ 3.34 µg/mL); with Staphylococcus aureus [5] it was 500 µM (≈ 428 µg/mL). The minimal bactericidal concentration (MBC) against Escherichia coli stood at 62.5 µM (≈ 53.6 µg/mL); with Staphylococcus aureus [6], 1.9 µM (≈ 1.63 µg/mL). Besides, the MIC was 62.5 µM (≈ 53.6 µg/mL) against Pseudomonas aeruginosa; 125 µM (≈ 107 µg/mL) with Enterococcus hirae; at most 0.12 µM in the test with Staphylococcus aureus [1]; 125 µM (≈ 107 µg/mL) against Staphylococcus aureus [3]; 0.48 µM (≈ 0.411 µg/mL) against Staphylococcus aureus [4]; 125 µM (≈ 107 µg/mL) against Staphylococcus aureus [5]. For the same compound, the MIC with Escherichia coli was determined as 62.5 µM (≈ 53.6 µg/mL); against Staphylococcus aureus [6], 0.12 µM (≈ 0.103 µg/mL). Also, the “growth inhibition (GI)” value in test [2] is “inactive”.
With `O=C(O)c1cn(C2CC2)c2cc(N3CCN(C(=O)COCc4ccccc4)CC3)c(F)cc2c1=O`, the MBC against Pseudomonas aeruginosa was 250 µM (≈ 120 µg/mL); with Enterococcus hirae, 7.8 µM (≈ 3.74 µg/mL); against Staphylococcus aureus [1], at most 0.24 µM; against Staphylococcus aureus [3], 500 µM (≈ 240 µg/mL); against Staphylococcus aureus [4], 0.97 µM (≈ 0.465 µg/mL); with Staphylococcus aureus [5] it was 125 µM (≈ 59.9 µg/mL). Moreover, the MBC against Escherichia coli turned out to be 1.9 µM (≈ 0.911 µg/mL); against Staphylococcus aureus [6] it was 0.97 µM (≈ 0.465 µg/mL). Besides, the MIC is 15.6 µM (≈ 7.48 µg/mL) against Pseudomonas aeruginosa; 7.8 µM (≈ 3.74 µg/mL) in the test on Enterococcus hirae; at most 0.12 µM in the test on Staphylococcus aureus [1]; 125 µM (≈ 59.9 µg/mL) against Staphylococcus aureus [3]; 0.48 µM (≈ 0.23 µg/mL) against Staphylococcus aureus [4]; 62.5 µM (≈ 30 µg/mL) in the test with Staphylococcus aureus [5]. Further, the MIC is at most 0.97 µM against Escherichia coli and 0.24 µM (≈ 0.115 µg/mL) against Staphylococcus aureus [6]. Besides, the “growth inhibition (GI)” value in [2] is “inactive”.
Take `CCCCCCCCCCCCOC(=O)N1CCN(c2cc3c(cc2F)c(=O)c(C(=O)O)cn3C2CC2)CC1`: the minimum bactericidal concentration (MBC) in the test on Pseudomonas aeruginosa came to 125 µM (≈ 68 µg/mL); in the test with Enterococcus hirae, 500 µM (≈ 272 µg/mL); in the test with Staphylococcus aureus [1], 125 µM (≈ 68 µg/mL); in the test on Escherichia coli, 250 µM (≈ 136 µg/mL). Moreover, the minimal inhibitory concentration (MIC) worked out at 125 µM (≈ 68 µg/mL) against Pseudomonas aeruginosa, 62.5 µM (≈ 34 µg/mL) with Enterococcus hirae, 125 µM (≈ 68 µg/mL) in the test with Staphylococcus aureus [1] and 125 µM (≈ 68 µg/mL) in the test on Escherichia coli. Moreover, in test [2], the “growth inhibition (GI)” value is “inactive”.
As for `CCCCCCCCCCCCCC(=O)N1CCN(c2cc3c(cc2F)c(=O)c(C(=O)O)cn3C2CC2)CC1`, the MBC with Pseudomonas aeruginosa was 250 µM (≈ 135 µg/mL); against Enterococcus hirae, 250 µM (≈ 135 µg/mL); in the test on Staphylococcus aureus [1] it was 125 µM (≈ 67.7 µg/mL); against Escherichia coli, 500 µM (≈ 271 µg/mL). For the same compound, the MIC came out at 125 µM (≈ 67.7 µg/mL) against Pseudomonas aeruginosa, 62.5 µM (≈ 33.9 µg/mL) with Enterococcus hirae, 125 µM (≈ 67.7 µg/mL) with Staphylococcus aureus [1] and 125 µM (≈ 67.7 µg/mL) against Escherichia coli. The “growth inhibition (GI)” value in test [2] is “inactive”.
Regarding `CCCCCCCCCOC(=O)N1CCN(c2cc3c(cc2F)c(=O)c(C(=O)O)cn3C2CC2)CC1`, the MBC against Pseudomonas aeruginosa turned out to be 250 µM (≈ 125 µg/mL); with Enterococcus hirae it was 250 µM (≈ 125 µg/mL); in the test on Staphylococcus aureus [1], 125 µM (≈ 62.7 µg/mL); against Escherichia coli, 500 µM (≈ 251 µg/mL). The MIC against Pseudomonas aeruginosa was determined as 125 µM (≈ 62.7 µg/mL); in the test with Enterococcus hirae, 62.5 µM (≈ 31.3 µg/mL); against Staphylococcus aureus [1] it was 62.5 µM (≈ 31.3 µg/mL); in the test with Escherichia coli, 125 µM (≈ 62.7 µg/mL). Moreover, the “growth inhibition (GI)” value in [2] was “inactive”.
With `O=C(O)c1cn(C2CC2)c2cc(N3CCN(C(=O)CCCCCCCCCCCCCCC(=O)N4CCN(c5cc6c(cc5F)c(=O)c(C(=O)O)cn6C5CC5)CC4)CC3)c(F)cc2c1=O`, the MBC came out at 250 µM (≈ 228 µg/mL) in the test with Pseudomonas aeruginosa, 500 µM (≈ 457 µg/mL) in the test with Enterococcus hirae, 15.6 µM (≈ 14.2 µg/mL) in the test on Staphylococcus aureus [1] and 500 µM (≈ 457 µg/mL) with Escherichia coli. Also, the MIC against Pseudomonas aeruginosa amounted to 62.5 µM (≈ 57.1 µg/mL); with Enterococcus hirae, 62.5 µM (≈ 57.1 µg/mL); in the test on Staphylococcus aureus [1], 1.9 µM (≈ 1.73 µg/mL); in the test with Escherichia coli it was 62.5 µM (≈ 57.1 µg/mL). In addition, the “growth inhibition (GI)” value in test [2] is “inactive”.
